Results published in US8022235B2, “Compositions of phospholipid ether boronic acids and esters and methods for their synthesis and use” (Cellectar, Inc., priority 2007, dated 2011).

Legend:
Adrenal RL-251 = experiment: Imaging and tissue distribution, tumor model; type: in vivo, SCID Mouse; conditions: days 1 through 14
SCC1 and 6 = experiment: Imaging and tissue distribution, tumor model; tumor regression; type: in vivo
From the text: (§1) During the course of mouse tumor uptake and retention studies with “imaging” doses (15-20 μCi/20 g mouse) of ^125I-labeled NM404, several apparent therapeutic responses have been observed (unpublished results). […] Some of these animals also lost all hair above larger mammary tumors at around 8 days after injection. Moreover, these mice also get intestinal tumors and usually suffer from intestinal bleeding resulting in severe anemia, which renders their feet white. […] Another compelling example of tumor regression is illustrated in FIG. 13. Two litter mates each received SCC1 and SCC6 xenografts in their left and right flanks, respectively. One mouse received a single injection of ^125I-NM404 (20 μCi). […] These coincidental findings were reconfirmed in two separate age-matched groups each involving more than 6 mice.

animal tumor models = experiment: Imaging and biodistribution across animal tumor models (general statements)
From the text: See, for example, U.S. patent application Ser. Nos. 10/906,687, 11/177,740, 11/316,620 and 11/382,645. Due to deficiencies in metabolic phospholipase enzymes in the membranes of malignant tumor cells, the prevailing hypothesis for this specificity is that phospholipid ether analogs become trapped exclusively in tumor cell membranes because of their inability to become metabolized and eliminated by the cancerous cell. Thus, the differential clearance rates of phospholipid ethers from normal cells versus neoplastic tumor cells are responsible for this specificity.
The reason for the retention of PLE and analogs in cancer cells remains unknown. Without being held to any particular theory, however, the prevailing hypothesis, is that radioiodinated PLE and APC analogs become trapped in tumor cell membranes because of their inability to be metabolized and eliminated. On the other hand, such lipid molecules are metabolized and cleared by normal tissues, including the liver.
These PLE analogs are specifically designed to incorporate aromatic radioiodine in order to render the molecule stable towards in vivo deiodination.

[1] = tested on: PC3 human prostate cancer xenografts; experiment: Single-dose 125I-NM404 treatment, tumor volume, PC3 xenografts; type: in vivo, SCID mice; conditions: single dose 250 μCi and 500 μCi, n=6 per group
Experimental: Tumor volumes were calculated using formula (width)^2×(length)/2 and expressed as mean±SEM, n=6 for each group. ⋄ Cold NM404, control;
(§2) The inventors have previously shown that ^125I-labeled PLE analogs such as NM404 are effective in targeting tumor therapies to tumor cells following single injection and fractionated dosing. For assessment of efficacy of ^125I-NM404 treatment, assessments of tumor volume were made until 10 weeks post-injection or until no animal in the control group was alive, whatever came first. Summarizing the results, control animals show rapidly growing tumors over the 10-week assessment period. See, FIGS. 2 and 3. […] Tumor volumes are stable and the same tumors appear “collapsed” (the tumor surface has caved in). Additionally, the hair above the tumors fell off confirming substantial accumulation of radioactivity in these tumors, FIG. 4. […] (See also, for example, U.S. patent application Ser. No. 11/671,403 hereby incorporated in its entirety for all purposes.)

Mammary SCC and ACC = experiment: Imaging and tissue distribution, tumor model; therapeutic responses at imaging doses; type: in vivo, Apc^Min/+mouse; conditions: single intravenous injection, ^125I-labeled, imaging dose 15-20 μCi/20 g mouse
From the text: as §1

[2] = tested on: A549 human non-small cell lung cancer xenografts; experiment: Single-dose 125I-NM404 treatment, tumor volume, A549 xenografts; type: in vivo, SCID mice
From the text: FIG. 3 illustrates antitumor effect of single-dose treatment with ^125I-125-NM404 at doses of 50 (∘), 150 (□), 250 (⋄) and 500 (∘) μCi in SCID mice bearing A549 human non-small cell lung cancer xenografts. In FIG. 3, control animals show rapidly growing tumors over the 10-week assessment period. […] Tumor volumes are stable and some tumors appear “collapsed” (the tumor surface has collapsed). Additionally, hair above the tumors fell off confirming substantial accumulation of radioactivity in these tumors.
FIG. 4 is an image showing one of the tumor-bearing animals treated with 250 μCi of ^125I-NM404 at 4 weeks following injection. The hair above the tumor has fallen off, apparently due to the significant accumulation of radioactivity in the tumor. […] The measurement method for determining outer tumor dimensions may have underestimated tumor volume response following dosing with ^125I-NM404;
as §2

C[N+](C)(C)CCOP(=O)([O-])OCCCCCCCCCCCCCCCCCCc1ccc([125I])cc1 [^125I-NM404]
tissue distribution, blood, spleen and kidney (Adrenal RL-251): distribution in blood, spleen and kidney reduced
tissue distribution, tumor (Adrenal RL-251): accumulation in the tumor increased
tumor regression (SCC1 and 6; by day 41 after injection (FIG. 12)): significantly reduced
health of treated animal (SCC1 and 6; single injection 20 μCi): quite healthy 80 days after injection
tumor regression (SCC1 and 6; single injection 20 μCi, SCC1 and SCC6 flank xenografts, untreated litter mate died 21 days later): regressed significantly
time over which tumors could be imaged (animal tumor models; mammary and prostate tumors in mice): > 60 days
duration of tumor retention (animal tumor models; mice, post-injection): 20 to 60 days
change in tumor volume / primary tumor growth [1]: significant effects in inhibiting the progression of primary tumor growth
tumor growth (Mammary SCC and ACC): tumor growth remains static
tumor volume vs control ([2]; 50 μCi dose group): did not show any difference when compared with control animals
tumor volume vs control ([2]; 150, 250 and 500 μCi dose groups): substantial and prolonged treatment effect
effect on the tumor (appearance) ([2]; 250 μCi, 4 weeks following injection (FIG. 4)): causes central necrosis
dose dependence of effect on tumor volume ([2]; single dose 50-500 μCi): dose-linear effect
tumor volume vs control ([2]; single dose 50 and 150 μCi (FIG. 3 legend)): did not show any difference when compared to control animals
tumor volume vs control ([2]; single dose 250 and 500 μCi (FIG. 3 legend)): substantial and prolonged treatment effect
